Common to all, as to assay type: cell-based
Test [1] has as its target KDR (phospho-KDR, VEGF165-stimulated HUVEC cells) (Homo sapiens (Human), UniProt P35968). In words: KDR autophosphorylation ELISA in HUVEC cells (Example G). The settings on record: cellular activity; KDR autophosphorylation ELISA in HUVEC cells. Here is the method:
Human umbilical vein endothelial cells or HUVEC (Lonza #C2519A) were seeded at 2×10^4 cells/well onto 96-well plates (Corning #3904), in EGM-2 growth medium (Lonza #CC-3162) containing 1% Penicillin Streptomycin (Thermo Fisher #15140-122). HUVEC cells were incubated at 37° C., 5% CO2 for 24 h and then starved for 24 h in serum-free EBM-2 basal medium (Lonza #CC-3156) containing 1% Penicillin Streptomycin. Test compounds were serially diluted to produce an 8-point dose curve in fresh serum-free medium to a final concentration of 0.3% DMSO (vehicle) and added to the cells and incubated for 1 h. Cells were then stimulated with 100 ng/mL recombinant human VEGF165 (R&D Systems #293-VE-500) for 5 min, washed with cold PBS, and immediately lysed with […] of cold 1× lysis buffer [20 mM Tris, 137 mM sodium chloride, 2 mM EDTA, 10% glycerol, 1% NP-40 alternative, 1 mM activated sodium orthovanadate, 1 mM PefaBloc SC (Sigma-Aldrich #11429868001), protease/phosphatase inhibitor tablet (Thermo Fisher #A32959)]. Lysates were collected and 100 μL/well added into the human phospho-KDR DuoSet IC ELISA (R&D Systems #DYC1766-2). Assay was performed according to manufacturer's instructions and sample phospho-KDR concentrations were extrapolated using human phospho-KDR control (R&D Systems #841421) as a standard. Positive control wells (100% activity) contained VEGF165-stimulated, DMSO-treated cell lysates. Negative control wells (0% activity) contained non-stimulated cell lysates. IC50 values were calculated by nonlinear regression analysis using a 4-parameter logistic curve fit in ActivityBase XE (IDBS).
On the technique in general: ELISA stands for enzyme-linked immunosorbent assay.

In test [2] the target is Met (phospho-Met, HGF-stimulated PC-3 prostate cancer cells) (Homo sapiens (Human), UniProt P08581). In words: Met autophosphorylation ELISA in PC-3 cells (Example F). The settings on record: cellular activity, read-out: c-Met IC50. As to the method:
PC-3 prostate cancer cells (ATCC #CRL-1435) were seeded at 4×10^4 cells/well onto 24-well plates (Greiner #662165), in DMEM (Thermo Fisher #11995-040) containing 10% FBS (Thermo Fisher #26140-079), 1% MEM NEAA (Thermo Fisher #11140-050), 1% GlutaMax (Thermo Fisher #35050-061), and 1% Penicillin Streptomycin (Thermo Fisher #15140-122). PC-3 cells were incubated at 37° C., 5% CO2 for 24 h and then starved for 3 h in serum-free medium. Test compounds were serially diluted to produce an 8-point dose curve in fresh serum-free medium to a final concentration of 0.3% DMSO (vehicle) and added to the cells and incubated for 1 h. Cells were then stimulated with 100 ng/mL recombinant human HGF (R&D Systems #294-HG-250) for 10 min, washed with cold PBS, and immediately lysed with […] of cold 1× lysis buffer [20 mM Tris, 137 mM sodium chloride, 2 mM EDTA, 10% glycerol, 1% NP-40 alternative, 1 mM activated sodium orthovanadate, 1 mM PefaBloc SC (Sigma-Aldrich #11429868001), protease/phosphatase inhibitor tablet (Thermo Fisher #A32959)]. Lysates were clarified by centrifugation and 100 μL/well added into the PathScan phospho-Met (panTyr) Sandwich ELISA (Cell Signaling Technology #7333). Assay was performed according to manufacturer's instructions. Positive control wells (100% activity) contained HGF-stimulated, DMSO-treated cell lysates. Negative control wells (0% activity) contained HGF-stimulated, reference inhibitor-treated cell lysates. IC50 values were calculated by nonlinear regression analysis using a 4-parameter logistic curve fit in ActivityBase XE (IDBS).

In test [3] the target is Mer (phospho-Mer, MERTK-transfected 293A cells) (Homo sapiens (Human), UniProt Q12866). In words: Mer autophosphorylation ELISA in transient transfected 293A cells (Example H). The settings on record: cellular activity. Here is the method: 293A cells (Thermo Fisher #R70507) were seeded at 1.5×10^6 cells/well onto 100 mm dish (Greiner #664169), in DMEM (Thermo Fisher #11995-040) containing 10% FBS (Thermo Fisher #26140-079), 1% MEM NEAA (Thermo Fisher #11140-050), 1% GlutaMax (Thermo Fisher #35050-061), and 1% Penicillin Streptomycin (Thermo Fisher #15140-122). 293A cells were incubated at 37° C., 5% CO2 for 24 h and then transfected with […] MERTK DNA (Genecopoeia #EX-Z8208-M02) using TransIT LT1 transfection reagent (Mirus-Bio #MIR2305). After 24 h incubation, the transfected 293A cells were seeded at 1×10^5 cells/well onto 96-well plates (Corning #3904) in DMEM growth medium overnight. Test compounds were serially diluted to produce an 8-point dose curve in fresh serum-free medium to a final concentration of 0.3% DMSO (vehicle) and added to the cells and incubated for 1 h. Cells were then immediately lysed with 150 μL of cold 1× lysis buffer [20 mM Tris, 137 mM sodium chloride, 2 mM EDTA, 10% glycerol, 1% NP-40 alternative, 1 mM activated sodium orthovanadate, 1 mM PefaBloc SC (Sigma-Aldrich #11429868001), protease/phosphatase inhibitor tablet (Thermo Fisher #A32959)]. Lysates were clarified by centrifugation and 50 µL/well added in to the human phospho-Mer DuoSet IC ELISA (R&D Systems #DYC2579-2). Assay was performed according to manufacturer's instructions and sample phospho-Mer concentrations were extrapolated using human phospho-Mer control (R&D Systems #841793) as a standard. Positive control wells (100% activity) contained DMSO-treated cell lysates. Negative control wells (0% activity) contained reference inhibitor-treated cell lysates. IC50 values were calculated by nonlinear regression analysis using a 4-parameter logistic curve fit in ActivityBase XE (JDBS).
Mer (phospho-Mer, MERTK-transfected 293A cells), sequence (Q12866 21-999): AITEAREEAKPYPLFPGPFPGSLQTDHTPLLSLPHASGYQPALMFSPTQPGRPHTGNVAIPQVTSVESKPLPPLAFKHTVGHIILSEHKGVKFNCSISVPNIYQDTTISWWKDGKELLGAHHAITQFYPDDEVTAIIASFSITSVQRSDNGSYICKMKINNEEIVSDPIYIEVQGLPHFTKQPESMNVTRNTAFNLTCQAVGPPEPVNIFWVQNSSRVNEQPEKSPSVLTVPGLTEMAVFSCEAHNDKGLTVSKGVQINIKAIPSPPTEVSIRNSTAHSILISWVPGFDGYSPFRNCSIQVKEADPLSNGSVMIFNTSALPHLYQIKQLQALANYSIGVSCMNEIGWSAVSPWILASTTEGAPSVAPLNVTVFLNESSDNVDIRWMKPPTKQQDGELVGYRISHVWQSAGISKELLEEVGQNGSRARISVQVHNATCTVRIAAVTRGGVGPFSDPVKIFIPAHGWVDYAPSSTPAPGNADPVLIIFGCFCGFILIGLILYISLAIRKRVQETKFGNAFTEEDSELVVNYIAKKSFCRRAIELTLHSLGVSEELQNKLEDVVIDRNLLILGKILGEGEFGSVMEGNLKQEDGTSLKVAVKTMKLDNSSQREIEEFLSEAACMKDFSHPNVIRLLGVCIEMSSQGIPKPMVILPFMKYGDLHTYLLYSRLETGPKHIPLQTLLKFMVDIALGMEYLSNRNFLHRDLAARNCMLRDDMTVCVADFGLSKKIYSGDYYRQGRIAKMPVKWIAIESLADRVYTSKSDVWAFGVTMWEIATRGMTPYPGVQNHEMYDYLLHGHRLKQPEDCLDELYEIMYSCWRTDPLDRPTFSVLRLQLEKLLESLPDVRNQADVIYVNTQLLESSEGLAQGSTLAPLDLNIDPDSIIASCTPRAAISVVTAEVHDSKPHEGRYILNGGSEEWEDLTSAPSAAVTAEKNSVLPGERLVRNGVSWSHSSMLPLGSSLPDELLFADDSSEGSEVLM

Where [4] appears, read: Met autophosphorylation ELISA in PC-3 cells.
[5] abbreviates: Mer autophosphorylation ELISA in transient transfected 293A cells.

Like-named read-outs stand apart in the source and are kept apart here.

Met (phospho-Met, HGF-stimulated PC-3 prostate cancer cells), sequence (P08581 25-1390): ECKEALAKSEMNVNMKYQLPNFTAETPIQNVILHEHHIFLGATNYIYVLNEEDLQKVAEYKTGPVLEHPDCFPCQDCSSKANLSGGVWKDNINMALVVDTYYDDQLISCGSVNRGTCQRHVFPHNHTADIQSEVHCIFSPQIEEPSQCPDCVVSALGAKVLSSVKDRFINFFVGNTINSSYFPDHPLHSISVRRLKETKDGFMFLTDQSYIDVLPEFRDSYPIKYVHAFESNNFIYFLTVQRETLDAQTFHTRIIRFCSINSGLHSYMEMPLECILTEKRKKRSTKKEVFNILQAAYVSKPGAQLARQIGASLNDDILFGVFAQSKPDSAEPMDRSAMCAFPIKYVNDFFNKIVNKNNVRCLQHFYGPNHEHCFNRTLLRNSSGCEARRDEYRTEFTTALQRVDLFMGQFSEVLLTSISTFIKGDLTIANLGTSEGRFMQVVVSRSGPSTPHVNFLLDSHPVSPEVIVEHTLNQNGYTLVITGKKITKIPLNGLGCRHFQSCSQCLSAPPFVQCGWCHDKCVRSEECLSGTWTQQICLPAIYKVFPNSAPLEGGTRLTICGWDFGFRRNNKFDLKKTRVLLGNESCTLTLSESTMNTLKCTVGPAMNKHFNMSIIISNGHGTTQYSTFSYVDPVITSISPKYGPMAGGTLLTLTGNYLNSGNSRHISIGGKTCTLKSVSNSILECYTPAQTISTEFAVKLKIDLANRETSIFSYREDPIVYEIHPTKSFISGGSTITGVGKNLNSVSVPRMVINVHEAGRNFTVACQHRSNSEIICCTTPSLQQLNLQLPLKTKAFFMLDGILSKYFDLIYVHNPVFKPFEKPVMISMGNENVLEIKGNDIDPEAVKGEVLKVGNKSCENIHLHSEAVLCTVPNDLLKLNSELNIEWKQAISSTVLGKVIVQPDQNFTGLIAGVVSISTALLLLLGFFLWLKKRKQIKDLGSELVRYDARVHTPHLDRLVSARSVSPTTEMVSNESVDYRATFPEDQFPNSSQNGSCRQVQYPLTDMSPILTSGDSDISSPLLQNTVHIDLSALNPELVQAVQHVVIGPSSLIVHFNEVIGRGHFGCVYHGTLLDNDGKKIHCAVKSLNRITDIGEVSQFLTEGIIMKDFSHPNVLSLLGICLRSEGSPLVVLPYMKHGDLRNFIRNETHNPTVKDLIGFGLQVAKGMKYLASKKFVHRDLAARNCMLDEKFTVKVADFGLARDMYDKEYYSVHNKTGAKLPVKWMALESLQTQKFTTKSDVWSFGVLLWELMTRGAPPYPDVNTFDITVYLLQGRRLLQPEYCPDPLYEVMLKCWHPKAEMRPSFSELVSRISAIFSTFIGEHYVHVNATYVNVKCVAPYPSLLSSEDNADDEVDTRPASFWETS
KDR (phospho-KDR, VEGF165-stimulated HUVEC cells), sequence (P35968 20-1356): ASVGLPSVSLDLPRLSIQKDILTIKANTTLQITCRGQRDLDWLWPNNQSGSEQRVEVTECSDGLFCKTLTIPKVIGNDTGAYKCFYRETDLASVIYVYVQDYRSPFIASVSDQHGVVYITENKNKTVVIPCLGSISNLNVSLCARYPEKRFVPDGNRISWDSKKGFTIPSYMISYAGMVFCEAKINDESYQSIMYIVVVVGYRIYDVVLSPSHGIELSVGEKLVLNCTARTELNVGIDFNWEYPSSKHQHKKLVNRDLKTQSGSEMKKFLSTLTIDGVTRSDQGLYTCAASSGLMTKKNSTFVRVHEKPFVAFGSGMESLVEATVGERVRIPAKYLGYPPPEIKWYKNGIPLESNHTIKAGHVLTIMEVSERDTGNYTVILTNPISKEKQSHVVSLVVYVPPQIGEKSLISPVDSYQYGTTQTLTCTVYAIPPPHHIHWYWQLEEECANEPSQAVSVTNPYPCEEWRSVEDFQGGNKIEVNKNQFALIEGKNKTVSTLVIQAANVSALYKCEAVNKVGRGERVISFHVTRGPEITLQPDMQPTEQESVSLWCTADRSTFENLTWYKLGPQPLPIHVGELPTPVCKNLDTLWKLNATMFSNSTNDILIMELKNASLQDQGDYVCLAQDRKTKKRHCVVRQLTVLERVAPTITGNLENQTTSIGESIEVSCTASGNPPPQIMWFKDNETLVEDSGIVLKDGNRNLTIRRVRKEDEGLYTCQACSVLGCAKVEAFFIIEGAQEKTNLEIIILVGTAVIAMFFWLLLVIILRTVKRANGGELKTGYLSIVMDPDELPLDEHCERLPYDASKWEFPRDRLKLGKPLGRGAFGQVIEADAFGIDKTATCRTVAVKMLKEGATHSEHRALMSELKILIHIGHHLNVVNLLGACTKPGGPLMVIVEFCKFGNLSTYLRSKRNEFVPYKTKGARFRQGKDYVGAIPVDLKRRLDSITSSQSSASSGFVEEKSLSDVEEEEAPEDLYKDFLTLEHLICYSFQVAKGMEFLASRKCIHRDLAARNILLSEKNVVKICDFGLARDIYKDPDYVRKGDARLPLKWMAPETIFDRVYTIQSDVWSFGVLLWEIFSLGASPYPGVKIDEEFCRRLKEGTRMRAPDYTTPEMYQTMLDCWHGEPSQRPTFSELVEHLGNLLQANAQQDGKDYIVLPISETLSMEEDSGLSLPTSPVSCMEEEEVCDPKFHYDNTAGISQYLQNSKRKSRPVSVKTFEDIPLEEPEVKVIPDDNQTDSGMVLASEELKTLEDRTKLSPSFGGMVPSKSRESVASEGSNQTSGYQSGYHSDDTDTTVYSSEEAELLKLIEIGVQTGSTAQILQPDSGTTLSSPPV

With `COc1cnc2c(Oc3ccc(NC(=O)c4cnc(C)c(-c5ccc(C(C)C)cc5)c4O)cc3F)ccnc2c1` [Compound 705, N-[3-fluoro-4-[(7-methoxy-1,5-naphthyridin-4-yl)oxy]phenyl]-4-hydroxy-6-methyl-5-(4-propan-2-ylphenyl)pyridine-3-carboxamide], the half-maximal inhibitory concentration (IC50) (commonly the concentration that inhibits the measured activity by half) is more than 300 nM in test [1], less than 100 nM in test [2] (setting [4]) and less than 100 nM in test [3] (setting [5]).
Turning to `COc1cnc2c(Oc3ccc(NC(=O)c4cnc(C)c(-c5ccc(F)c(F)c5)c4O)cc3F)ccnc2c1` [Compound 706, 5-(3,4-difluorophenyl)-N-[3-fluoro-4-[(7-methoxy-1,5-naphthyridin-4-yl)oxy]phenyl]-4-hydroxy-6-methylpyridine-3-carboxamide], the IC50 in test [1], in test [2] (setting [4]) and in test [3] (setting [5]) was less than 100 nM each time.
Turning to `COc1cnc2c(Oc3ccc(NC(=O)c4cnc(C)c(-c5ccc(F)cc5OC)c4O)cc3F)ccnc2c1` [Compound 707, N-[3-fluoro-4-[(7-methoxy-1,5-naphthyridin-4-yl)oxy]phenyl]-5-(4-fluoro-2-methoxyphenyl)-4-hydroxy-6-methylpyridine-3-carboxamide], the IC50 in test [1], in test [2] (setting [4]) and in test [3] (setting [5]) was less than 100 nM throughout.
Turning to `COc1cc2nccc(Oc3ccc(NC(=O)c4c(C)nc(C)c(-c5ccc(F)c(F)c5)c4O)cc3F)c2nc1OC` [Compound 708, 5-(3,4-difluorophenyl)-N-[4-[(6,7-dimethoxy-1,5-naphthyridin-4-yl)oxy]-3-fluorophenyl]-4-hydroxy-2,6-dimethylpyridine-3-carboxamide], the IC50 in test [1], in test [2] (setting [4]) and in test [3] (setting [5]) was less than 100 nM throughout.
`COc1cc(-c2c(C)nc(C)c(C(=O)Nc3ccc(Oc4ccnc5cc(OC)c(OC)nc45)c(F)c3)c2O)ccc1F` [Compound 709, N-[4-[(6,7-dimethoxy-1,5-naphthyridin-4-yl)oxy]-3-fluorophenyl]-5-(4-fluoro-3-methoxyphenyl)-4-hydroxy-2,6-dimethylpyridine-3-carboxamide]: the IC50 in test [1], in test [2] (setting [4]) and in test [3] (setting [5]) was less than 100 nM each time.
Consider `COc1cc2nccc(Oc3ccc(NC(=O)c4c(C)nc(C)c(-c5ccc(F)c(C)c5)c4O)cc3F)c2nc1OC` [Compound 710, N-[4-[(6,7-dimethoxy-1,5-naphthyridin-4-yl)oxy]-3-fluorophenyl]-5-(4-fluoro-3-methylphenyl)-4-hydroxy-2,6-dimethylpyridine-3-carboxamide], for which the IC50 in test [1], in test [2] (setting [4]) and in test [3] (setting [5]) was less than 100 nM each time.
As to `COc1cc2nccc(Oc3ccc(NC(=O)c4c(C)nc(C)c(-c5ccc(C(C)C)cc5)c4O)cc3F)c2nc1OC` [Compound 711, N-[4-[(6,7-dimethoxy-1,5-naphthyridin-4-yl)oxy]-3-fluorophenyl]-4-hydroxy-2,6-dimethyl-5-(4-propan-2-ylphenyl)pyridine-3-carboxamide], the concentration for half-maximal inhibition (IC50) in test [1], in test [2] (setting [4]) and in test [3] (setting [5]) was less than 100 nM throughout.
As to `COc1ccc(-c2c(C)nc(C)c(C(=O)Nc3ccc(Oc4ccnc5cc(OC)c(OC)nc45)c(F)c3)c2O)cc1C` [Compound 712, N-[4-[(6,7-dimethoxy-1,5-naphthyridin-4-yl)oxy]-3-fluorophenyl]-4-hydroxy-5-(4-methoxy-3-methylphenyl)-2,6-dimethylpyridine-3-carboxamide], the IC50 in test [1], in test [2] (setting [4]) and in test [3] (setting [5]) was less than 100 nM each time.
For `COc1ccc(-c2c(C)nc(C)c(C(=O)Nc3ccc(Oc4ccnc5cc(OC)c(OC)nc45)c(F)c3)c2O)c(OC)c1` [Compound 713, N-[4-[(6,7-dimethoxy-1,5-naphthyridin-4-yl)oxy]-3-fluorophenyl]-5-(2,4-dimethoxyphenyl)-4-hydroxy-2,6-dimethylpyridine-3-carboxamide], the IC50 in test [2] (setting [4]) and in test [3] (setting [5]) was less than 100 nM each time.
Regarding `COc1cc2c(Oc3ccc(NC(=O)c4nc(C)c(C)n(-c5ccc(F)cc5)c4=O)cc3F)ccnc2cn1` [Compound 714, N-[3-fluoro-4-[(6-methoxy-1,7-naphthyridin-4-yl)oxy]phenyl]-4-(4-fluorophenyl)-5,6-dimethyl-3-oxopyrazine-2-carboxamide], the IC50 in test [2] (setting [4]) and in test [3] (setting [5]) was less than 100 nM throughout.
For `CCOc1ccn(-c2ccc(F)cc2)c(=O)c1C(=O)Nc1ccc(Oc2ccnc3cc(OC)c(OC)nc23)c(F)c1` [Compound 715, N-[4-[(6,7-dimethoxy-1,5-naphthyridin-4-yl)oxy]-3-fluorophenyl]-4-ethoxy-1-(4-fluorophenyl)-2-oxopyridine-3-carboxamide], the IC50 in test [1], in test [2] (setting [4]) and in test [3] (setting [5]) was less than 100 nM throughout.
Regarding `CCOc1ccn(-c2ccc(F)cc2)c(=O)c1C(=O)Nc1ccc(Oc2ccnc3cc(OC)cnc23)c(F)c1` [Compound 716, 4-ethoxy-N-[3-fluoro-4-[(7-methoxy-1,5-naphthyridin-4-yl)oxy]phenyl]-1-(4-fluorophenyl)-2-oxopyridine-3-carboxamide], the IC50 in test [1] was more than 300 nM; in test [2] (setting [4]), less than 100 nM; in test [3] (setting [5]), less than 100 nM.
Consider `CCOc1ccn(-c2ccc(F)cc2)c(=O)c1C(=O)Nc1ccc(Oc2ccnc3cc(OC)cnc23)cc1` [Compound 717, 4-ethoxy-1-(4-fluorophenyl)-N-[4-[(7-methoxy-1,5-naphthyridin-4-yl)oxy]phenyl]-2-oxopyridine-3-carboxamide], for which the half-inhibitory concentration (IC50) in test [1] is more than 300 nM; in test [2] (setting [4]), less than 100 nM; in test [3] (setting [5]), less than 100 nM.
Turning to `COc1cc2nccc(Oc3ccc(NC(=O)c4c(C)n(CC(F)(F)F)cc(-c5ccc(F)cc5C)c4=O)cc3F)c2nc1OC` [Compound 802, N-[4-[(6,7-dimethoxy-1,5-naphthyridin-4-yl)oxy]-3-fluorophenyl]-5-(4-fluoro-2-methylphenyl)-2-methyl-4-oxo-1 (2,2,2-trifluoroethyl)pyridine-3-carboxamide], the IC50 in test [2] (PC-3 cells) and in test [3] (transfected 293A cells) was less than 100 nM each time.
